Source: patent publication US6355799B1, “Substituted benzene compounds, process for their preparation, and herbicidal and defoliant compositions containing them” (ISK Americas Incorporated, priority 1997, dated 2002)

Tests used:
Type in all cases: in vivo
[1] = system: barnyardgrass (Echinochloa crus-galli, ECHCG); test: Post-emerge test, greenhouse herbicide activity screening; conditions: phytotoxicity rating 0-100 (0 no damage, 100 complete death), 14 days after application
In short: (§1)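 Compounds in acetone were track-sprayed at 15-1000 g ai/ha (187 l/ha) on sandy loam pots: pre-emerge one day after seeding, post-emerge at 2-3 leaf stage with 0.25% v/v non-ionic surfactant. Phytotoxicity was rated 14 days later on a 0 (no damage) to 100 (complete death) scale.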

[2] = system: ivyleaf morningglory (Ipomoea hederacea, IPOHE); test: as above; conditions: phytotoxicity rating 0-100 (0 no damage, 100 complete death), 14 days after application
In short: as §1

[3] = system: velvetleaf (Abutilon theophrasti, ABUTH); test: as above; conditions: 63 g ai/ha; phytotoxicity rating 0-100 (0 no damage, 100 complete death), 14 days after application
In short: as §1

[4] = system: johnsongrass (Sorghum halepense, SORHA); test: as above; conditions: phytotoxicity rating 0-100 (0 no damage, 100 complete death), 14 days after application
In short: as §1

[5] = system: common ragweed (Ambrosia artemisizfolia L., AMBEL); test: as above; conditions: phytotoxicity rating 0-100 (0 no damage, 100 complete death), 14 days after application
In short: as §1

[6] = system: sicklepod (Cassia obtusifolia, CASOB); test: as above; conditions: phytotoxicity rating 0-100 (0 no damage, 100 complete death), 14 days after application
In short: as §1

[7] = system: green foxtail (Setaria viridis, SETVI); test: as above; conditions: phytotoxicity rating 0-100 (0 no damage, 100 complete death), 14 days after application
In short: as §1

[8] = system: redroot pigweed (Amaranthus retroflexus, AMARE); test: as above; conditions: phytotoxicity rating 0-100 (0 no damage, 100 complete death), 14 days after application
In short: as §1

[9] = system: large crabgrass (Digitaria sanguinalis, DIGSA); test: as above; conditions: phytotoxicity rating 0-100 (0 no damage, 100 complete death), 14 days after application
In short: as §1

[10] = system: lambsquarters (Chenopodium album, CHEAL); test: as above; conditions: phytotoxicity rating 0-100 (0 no damage, 100 complete death), 14 days after application
In short: as §1

[11] = system: redroot pigweed (Amaranthus retroflexus, AMARE); test: Pre-emerge test, greenhouse herbicide activity screening; conditions: pre-emerge, rated 14 days after application, 0 = no damage, 100 = complete death
In short: (§2)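 Compounds in acetone were track-sprayed at 187 l/ha, 15–1000 g ai/ha, onto sandy loam pots. Pre-emerge seeds were sown one day before spraying, with surface watering afterwards. Post-emerge plants were at the 2–3 leaf stage and sprayed with 0.25% v/v non-ionic surfactant. Injury was rated 0–100 at 14 days.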

[12] = system: upland rice (Oryza sp., var. Tebonnet, RICE); test: Post-emerge test, crop safety; conditions: phytotoxicity rating 0-100 (0 no damage, 100 complete death), 14 days after application
In short: as §2

[13] = system: field corn (Zea mays L., var. Dekalb 535, CORN); test: Post-emerge test, crop safety; conditions: phytotoxicity rating 0-100 (0 no damage, 100 complete death), 14 days after application
In short: as §2

[14] = system: barnyardgrass (Echinochloa crus-galli, ECHCG); test: Pre-emerge test, greenhouse herbicide activity screening; conditions: pre-emerge, rated 14 days after application, 0 = no damage, 100 = complete death
In short: as §2

[15] = system: ivyleaf morningglory (Ipomoea hederacea, IPOHE); test: as above; conditions: pre-emerge, rated 14 days after application, 0 = no damage, 100 = complete death
In short: as §2

[16] = system: velvetleaf (Abutilon theophrasti, ABUTH); test: as above; conditions: pre-emerge, rated 14 days after application, 0 = no damage, 100 = complete death
In short: as §2

[17] = system: johnsongrass (Sorghum halepense, SORHA); test: as above; conditions: pre-emerge, rated 14 days after application, 0 = no damage, 100 = complete death
In short: as §2

[18] = system: common ragweed (Ambrosia artemisizfolia L., AMBEL); test: as above; conditions: pre-emerge, rated 14 days after application, 0 = no damage, 100 = complete death
In short: as §2

[19] = system: sicklepod (Cassia obtusifolia, CASOB); test: as above; conditions: pre-emerge, rated 14 days after application, 0 = no damage, 100 = complete death
In short: as §2

[20] = system: green foxtail (Setaria viridis, SETVI); test: as above; conditions: pre-emerge, rated 14 days after application, 0 = no damage, 100 = complete death
In short: as §2

[21] = system: large crabgrass (Digitaria sanguinalis, DIGSA); test: as above; conditions: pre-emerge, rated 14 days after application, 0 = no damage, 100 = complete death
In short: as §2

[22] = system: lambsquarters (Chenopodium album, CHEAL); test: as above; conditions: pre-emerge, rated 14 days after application, 0 = no damage, 100 = complete death
In short: as §2

[23] = system: upland rice (Oryza sp., var. Tebonnet, RICE); test: Pre-emerge test, crop safety; conditions: pre-emerge, rated 14 days after application, 0 = no damage, 100 = complete death
In short: as §1

[24] = system: field corn (Zea mays L., var. Dekalb 535, CORN); test: Pre-emerge test, crop safety; conditions: pre-emerge, rated 14 days after application, 0 = no damage, 100 = complete death
In short: as §1

With `COc1c(Cl)cc(F)c(-n2c(=O)cc(C(F)(F)F)n(C)c2=O)c1N1CCCC1` [Compound 1-32] the “Post-emerge Herbicidal Activity ECHCG” value ([1]; 63 g ai/ha) was 0, the “Post-emerge Herbicidal Activity ECHCG” value ([1]; 250 g ai/ha) was 0 and the “Post-emerge Herbicidal Activity IPOHE” value ([2]; 63 g ai/ha) was 0. For the same molecule, the “Post-emerge Herbicidal Activity IPOHE” value ([2]; 250 g ai/ha) was 70, the “Post-emerge Herbicidal Activity ABUTH” value [3] was 30 and the “Post-emerge Herbicidal Activity SORHA” value ([4]; 63 g ai/ha) was 0. For the same molecule, the “Post-emerge Herbicidal Activity SORHA” value ([4]; 250 g ai/ha) was 0, the “Post-emerge Herbicidal Activity AMBEL” value ([5]; 63 g ai/ha) was 0 and the “Post-emerge Herbicidal Activity AMBEL” value ([5]; 250 g ai/ha) was 30. For the same molecule, the “Post-emerge Herbicidal Activity CASOB” value ([6]; 63 g ai/ha) was 0, the “Post-emerge Herbicidal Activity CASOB” value ([6]; 250 g ai/ha) was 0 and the “Post-emerge Herbicidal Activity SETVI” value ([7]; 63 g ai/ha) was 0. For the same molecule, the “Post-emerge Herbicidal Activity SETVI” value ([7]; 250 g ai/ha) was 0, the “Post-emerge Herbicidal Activity AMARE” value ([8]; 63 g ai/ha) was 10 and the “Post-emerge Herbicidal Activity AMARE” value ([8]; 250 g ai/ha) was 30. The “Post-emerge Herbicidal Activity DIGSA” value ([9]; 63 g ai/ha) was 0, the “Post-emerge Herbicidal Activity DIGSA” value ([9]; 250 g ai/ha) was 0 and the “Post-emerge Herbicidal Activity CHEAL” value ([10]; 63 g ai/ha) was 0. For the same molecule, the “Post-emerge Herbicidal Activity CHEAL” value ([10]; 250 g ai/ha) was 60, the “Pre-emerge Herbicidal Activity AMARE (phytotoxicity rating, scale 0-100)” value ([11]; 63 g ai/ha) was 0 and the “Pre-emerge Herbicidal Activity AMARE (phytotoxicity rating, scale 0-100)” value ([11]; 250 g ai/ha) was 100. The “Post-emerge Herbicidal Activity RICE (crop damage)” value ([12]; 63 g ai/ha) was 0, the “Post-emerge Herbicidal Activity RICE (crop damage)” value ([12]; 250 g ai/ha) was 0 and the “Post-emerge Herbicidal Activity CORN (crop damage)” value ([13]; 63 g ai/ha) was 0. For the same molecule, the “Post-emerge Herbicidal Activity CORN (crop damage)” value ([13]; 250 g ai/ha) was 0, the “Pre-emerge Herbicidal Activity ECHCG (phytotoxicity rating, scale 0-100)” value ([14]; 63 g ai/ha) was 0 and the “Pre-emerge Herbicidal Activity ECHCG (phytotoxicity rating, scale 0-100)” value ([14]; 250 g ai/ha) was 95. The “Pre-emerge Herbicidal Activity IPOHE (phytotoxicity rating, scale 0-100)” value ([15]; 63 g ai/ha) was 0, the “Pre-emerge Herbicidal Activity IPOHE (phytotoxicity rating, scale 0-100)” value ([15]; 250 g ai/ha) was 50 and the “Pre-emerge Herbicidal Activity ABUTH (phytotoxicity rating, scale 0-100)” value ([16]; 63 g ai/ha) was 90. For the same molecule, the “Pre-emerge Herbicidal Activity ABUTH (phytotoxicity rating, scale 0-100)” value ([16]; 250 g ai/ha) was 100, the “Pre-emerge Herbicidal Activity SORHA (phytotoxicity rating, scale 0-100)” value ([17]; 63 g ai/ha) was 0 and the “Pre-emerge Herbicidal Activity SORHA (phytotoxicity rating, scale 0-100)” value ([17]; 250 g ai/ha) was 30. For the same molecule, the “Pre-emerge Herbicidal Activity AMBEL (phytotoxicity rating, scale 0-100)” value ([18]; 63 g ai/ha) was 0, the “Pre-emerge Herbicidal Activity AMBEL (phytotoxicity rating, scale 0-100)” value ([18]; 250 g ai/ha) was 50 and the “Pre-emerge Herbicidal Activity CASOB (phytotoxicity rating, scale 0-100)” value ([19]; 63 g ai/ha) was 40. The “Pre-emerge Herbicidal Activity CASOB (phytotoxicity rating, scale 0-100)” value ([19]; 250 g ai/ha) was 40, the “Pre-emerge Herbicidal Activity SETVI (phytotoxicity rating, scale 0-100)” value ([20]; 63 g ai/ha) was 0 and the “Pre-emerge Herbicidal Activity SETVI (phytotoxicity rating, scale 0-100)” value ([20]; 250 g ai/ha) was 100. The “Pre-emerge Herbicidal Activity DIGSA (phytotoxicity rating, scale 0-100)” value ([21]; 63 g ai/ha) was 0, the “Pre-emerge Herbicidal Activity DIGSA (phytotoxicity rating, scale 0-100)” value ([21]; 250 g ai/ha) was 100 and the “Pre-emerge Herbicidal Activity CHEAL (phytotoxicity rating, scale 0-100)” value ([22]; 63 g ai/ha) was 90. The “Pre-emerge Herbicidal Activity CHEAL (phytotoxicity rating, scale 0-100)” value ([22]; 250 g ai/ha) was 100, the “Pre-emerge crop damage RICE (phytotoxicity rating, scale 0-100)” value ([23]; 63 g ai/ha) was 20 and the “Pre-emerge crop damage RICE (phytotoxicity rating, scale 0-100)” value ([23]; 250 g ai/ha) was 40. The “Pre-emerge crop damage CORN (phytotoxicity rating, scale 0-100)” value ([24]; 63 g ai/ha) was 0 and the “Pre-emerge crop damage CORN (phytotoxicity rating, scale 0-100)” value ([24]; 250 g ai/ha) was 0.
